Test results: publication PMC10343686, “Integration of Hybridization Strategies in Pyridine–Urea Scaffolds for Novel Anticancer Agents: Design, Synthesis, and Mechanistic Insights” (Molecules, 2023)
“Also recorded” adds a separate entry of the source. Like-named read-outs stand apart in the source and are kept apart here.

Legend:
MCF7 cancer cell line [1] = test: SRB assay of antiproliferative activity, MCF7; assay type: cell-based; settings: for GI50: Homo sapiens, MCF7, SRB assay, 48 h, mean ± standard error (n = 3)
Method: (§1) Breast cancer cell line MCF7 and colorectal carcinoma cell line HCT116 were obtained from the National Cancer Institute (MTA Number: 2702-09). Cells were cultured in complete RPMI 1640 medium (Hyclone, Logan, UT, USA) containing 10% FBS (Hyclone, Logan, UT, USA) in an atmosphere of 5% CO 2/100% humidity at 37 °C. Each investigated compound was diluted using DMSO to make a stock solution. It was treated by mixing with cell culture medium (RPMI1640 containing 10% FBS (Hyclone, Logan, UT, USA)) so that the final concentration of the drug was 0.001, 0.01, 0.1, 1, or 10 uM. There was no compound precipitated upon treatment in the culture medium.
(§2) The SRB assay was performed following the methodology of previously published studies. In brief, the cells (100 μL medium containing 5000 HCT116 or 10,000 MCF7 cells/well) were incubated in 96-well microtiter plates. After 24 h, the drug was added (100 μL) to each well and the cultures were incubated for 48 h at 37 °C. The cells were fixed in 50% TCA (50 μL per well) for 1 h at 4 °C. The liquid was removed from the plate, which was then rinsed five times with water and allowed to dry at room temperature (RT). Washed cells were stained for 10 min at RT with 0.4% SRB (100 μL per well). After staining, the plate was washed 3 times with 1% glacial acetic acid and dried at RT. The SRB stain was then solubilized in 10 mM Tris and absorbances were read at 515 nm. The effect of the drugs was expressed in terms of the GI50 (the concentration resulting in 50% maximal inhibition of cell proliferation). […]

HCT116 cancer cell line = test: SRB assay of antiproliferative activity, HCT116; assay type: cell-based; settings: Homo sapiens, HCT-116, 48 h, mean ± standard error (n = 3)
Method: as §1, §2

normal cell line HEK293 = test: SRB assay of antiproliferative activity on normal cells; assay type: cell-based; settings: HEK293, 48 h, Figure 3
Method: The antiproliferative activity of compounds 8a, 8h, and 8i was evaluated in a sulforhodamine B (SRB) assay using normal cell line HEK293 cells. Cells were treated for 48 h under the same conditions used for the assessment of the antiproliferative activity on the cancer cells.

MCF7 cancer cell line [2] = test system: MCF7 cancer cell line; parameters: method as in PMID 35217379; settings: cited from earlier work

Question: With O=C(NCCc1ccc(F)cc1)Nc1cc(-c2ccc3cncnc3c2)ccn1 [Compound 4n, 1-(4-Fluorophenethyl)-3-(4-(quinazolin-7-yl)pyridin-2-yl)urea] as the compound, how does the GI50 (MCF7 cancer cell line [1]) read?
Answer: > 10 µM

Question: What about the melting point of the same compound?
Answer: 214 to 217 °C

Question: And the GI50 (HCT116 cancer cell line)?
Answer: > 10 µM

Question: What does the source list for COc1ccc(NC(=O)Nc2cc(-c3ccc4cncnc4c3)ccn2)cc1 [Compound 4e, 1-(4-Methoxyphenyl)-3-(4-(quinazolin-7-yl)pyridin-2-yl)urea]?
Answer: GI50 (MCF7 cancer cell line [1]): > 10 µM; GI50 (HCT116 cancer cell line): > 10 µM

Question: What does the source list for COc1n[nH]c2ccc(-c3ccnc(NC(=O)Nc4ccc(F)c(Cl)c4)c3)cc12 [Compound 8f, 1-(3-Chloro-4-fluorophenyl)-3-(4-(3-methoxy-1H-indazol-5-yl)pyridin-2-yl)urea]?
Answer: GI50 (MCF7 cancer cell line [1]): 0.89 ± 0.209 µM; melting point: 300 to 305 °C; GI50 (HCT116 cancer cell line): 0.92 ± 0.114 µM

Question: Which results are given for O=C(Nc1ccccc1)Nc1cc(-c2ccc3cncnc3c2)ccn1 [Compound 4a, 1-Phenyl-3-(4-(quinazolin-7-yl)pyridin-2-yl)urea]?
Answer: GI50 (MCF7 cancer cell line [1]): > 10 µM; melting point: 332 to 335 °C; GI50 (HCT116 cancer cell line): > 10 µM

Question: Which GI50 (MCF7 cancer cell line [1]) does the source give for COc1n[nH]c2ccc(-c3ccnc(NC(=O)Nc4cccc(F)c4)c3)cc12 [Compound 8b, 1-(3-Fluorophenyl)-3-(4-(3-methoxy-1H-indazol-5-yl)pyridin-2-yl)urea] here?
Answer: > 10 µM

Question: And the melting point?
Answer: 229 to 232 °C

Question: What about the GI50 (HCT116 cancer cell line) of the same compound?
Answer: > 10 µM

Question: With COc1cccc(NC(=O)Nc2cc(-c3ccc4cncnc4c3)ccn2)c1 [Compound 4d, 1-(3-Methoxyphenyl)-3-(4-(quinazolin-7-yl)pyridin-2-yl)urea] as the compound, how does the GI50 (MCF7 cancer cell line [1]) read?
Answer: > 10 µM

Question: And the GI50 (HCT116 cancer cell line)?
Answer: > 10 µM

Question: With COc1n[nH]c2ccc(-c3ccnc(NC(=O)NCCc4ccccc4)c3)cc12 [Compound 8i, 1-(4-(3-Methoxy-1H-indazol-5-yl)pyridin-2-yl)-3-phenethylurea] as the compound, how does the GI50 (MCF7 cancer cell line [1]) read?
Answer: 0.16 ± 0.013 µM

Question: And the melting point?
Answer: 200 to 203 °C

Question: What about the GI50 (HCT116 cancer cell line) of the same compound?
Answer: 1.08 ± 0.006 µM

Question: What about the “cell growth inhibitory effect on normal cells” value (normal cell line HEK293) of the same compound?
Answer: excellent safety profiles; also recorded: low cytotoxicity

Question: Which results are given for O=C(Nc1cccc(F)c1)Nc1cc(-c2ccc3cncnc3c2)ccn1 [Compound 4b, 1-(3-Fluorophenyl)-3-(4-(quinazolin-7-yl)pyridin-2-yl)urea]?
Answer: GI50 (MCF7 cancer cell line [1]): > 10 µM; GI50 (HCT116 cancer cell line): > 10 µM

Question: What does the source list for O=C(NCc1ccccc1)Nc1cc(-c2ccc3cncnc3c2)ccn1 [Compound 4k, 1-Benzyl-3-(4-(quinazolin-7-yl)pyridin-2-yl)urea]?
Answer: GI50 (MCF7 cancer cell line [1]): 3.03 ± 0.061 µM; melting point: 221 to 224 °C; GI50 (HCT116 cancer cell line): > 10 µM

Question: With O=C(Nc1ccc(F)cc1)Nc1cc(-c2ccc3cncnc3c2)ccn1 [Compound 4c, 1-(4-Fluorophenyl)-3-(4-(quinazolin-7-yl)pyridin-2-yl)urea] as the compound, how does the GI50 (MCF7 cancer cell line [1]) read?
Answer: > 10 µM

Question: What about the GI50 (HCT116 cancer cell line) of the same compound?
Answer: > 10 µM

Question: For COc1n[nH]c2ccc(-c3ccnc(NC(=O)NCCc4ccccc4F)c3)cc12 [Compound 8j, 1-(2-Fluorophenethyl)-3-(4-(3-methoxy-1H-indazol-5-yl)pyridin-2-yl)urea], which GI50 (MCF7 cancer cell line [1]) is on record?
Answer: 0.75 ± 0.142 µM

Question: And the melting point?
Answer: 208 to 211 °C

Question: And the GI50 (HCT116 cancer cell line)?
Answer: > 10 µM

Question: Which GI50 (MCF7 cancer cell line [1]) does the source give for COc1n[nH]c2ccc(-c3ccnc(NC(=O)Nc4ccc(F)cc4)c3)cc12 [Compound 8c, 1-(4-Fluorophenyl)-3-(4-(3-methoxy-1H-indazol-5-yl)pyridin-2-yl)urea] here?
Answer: 3.73 ± 0.075 µM

Question: What about the melting point of the same compound?
Answer: 229 to 232 °C

Question: And the GI50 (HCT116 cancer cell line)?
Answer: 1.22 ± 0.141 µM

Question: With O=C(Nc1cc(-c2ccc3cncnc3c2)ccn1)NC1CCCC1 [Compound 4j, 1-Cyclopentyl-3-(4-(quinazolin-7-yl)pyridin-2-yl)urea] as the compound, how does the GI50 (MCF7 cancer cell line [1]) read?
Answer: > 10 µM

Question: And the melting point?
Answer: 223 to 226 °C

Question: And the GI50 (HCT116 cancer cell line)?
Answer: > 10 µM

Question: Which results are given for O=C(NCCc1ccccc1)Nc1cc(-c2ccc3cncnc3c2)ccn1 [Compound 4l, 1-Phenethyl-3-(4-(quinazolin-7-yl)pyridin-2-yl)urea]?
Answer: GI50 (MCF7 cancer cell line [1]): 9 ± 0.347 µM; melting point: 260 to 263 °C; GI50 (HCT116 cancer cell line): > 10 µM

Question: With O=C(Nc1cccc(C(F)(F)F)c1)Nc1cc(-c2ccc3cncnc3c2)ccn1 [Compound 4f, 1-(4-(Quinazolin-7-yl)pyridin-2-yl)-3-(3-(trifluoromethyl)phenyl)urea] as the compound, how does the GI50 (MCF7 cancer cell line [1]) read?
Answer: > 10 µM

Question: What about the melting point of the same compound?
Answer: 328 to 331 °C

Question: And the GI50 (HCT116 cancer cell line)?
Answer: > 10 µM

Question: Which results are given for CCc1c2c(nc3ccc(OC(=O)N4CCC(N5CCCCC5)CC4)cc13)-c1cc3c(c(=O)n1C2)COC(=O)[C@]3(O)CC [Irinotecan, reference compound]?
Answer: GI50 (MCF7 cancer cell line [1]): 0.35 ± 0.069 µM; GI50 (HCT116 cancer cell line): 0.62 ± 0.003 µM

Question: Which GI50 (MCF7 cancer cell line [1]) does the source give for COc1ccc(NC(=O)Nc2cc(-c3ccc4[nH]nc(OC)c4c3)ccn2)cc1 [Compound 8e, 1-(4-(3-Methoxy-1H-indazol-5-yl)pyridin-2-yl)-3-(4-methoxyphenyl)urea] here?
Answer: 4.37 ± 0.359 µM

Question: And the melting point?
Answer: 240 to 242 °C

Question: And the GI50 (HCT116 cancer cell line)?
Answer: > 10 µM

Question: Which GI50 (MCF7 cancer cell line [1]) does the source give for O=C(Nc1ccc(F)c(Cl)c1)Nc1cc(-c2ccc3cncnc3c2)ccn1 [Compound 4h, 1-(3-Chloro-4-fluorophenyl)-3-(4-(quinazolin-7-yl)pyridin-2-yl)urea] here?
Answer: > 10 µM

Question: And the melting point?
Answer: 318 to 321 °C

Question: What about the GI50 (HCT116 cancer cell line) of the same compound?
Answer: > 10 µM

Question: For O=C(Nc1cccc(OC(F)(F)F)c1)Nc1cc(-c2ccc3cncnc3c2)ccn1 [Compound 4g, 1-(4-(Quinazolin-7-yl)pyridin-2-yl)-3-(3-(trifluoromethoxy)phenyl)urea], which GI50 (MCF7 cancer cell line [1]) is on record?
Answer: > 10 µM

Question: And the GI50 (HCT116 cancer cell line)?
Answer: > 10 µM

Question: Which GI50 (MCF7 cancer cell line [1]) does the source give for COc1cccc(NC(=O)Nc2cc(-c3ccc4[nH]nc(OC)c4c3)ccn2)c1 [Compound 8d, 1-(4-(3-Methoxy-1H-indazol-5-yl)pyridin-2-yl)-3-(3-methoxyphenyl)urea] here?
Answer: 1.89 ± 0.26 µM

Question: And the melting point?
Answer: 230 to 233 °C

Question: What about the GI50 (HCT116 cancer cell line) of the same compound?
Answer: > 10 µM

Question: For COc1n[nH]c2ccc(-c3ccnc(NC(=O)Nc4ccccc4)c3)cc12 [Compound 8a, 1-(4-(3-Methoxy-1H-indazol-5-yl)pyridin-2-yl)-3-phenylurea], which GI50 (MCF7 cancer cell line [1]) is on record?
Answer: 0.06 ± 0.014 µM

Question: What about the “potency compared to the positive control drug Irinotecan” value (MCF7 cancer cell line [1]; MCF7 cancer cell line, ratio of GI50 values) of the same compound?
Answer: 6 fold

Question: What about the melting point of the same compound?
Answer: 218 to 221 °C

Question: What about the GI50 (HCT116 cancer cell line) of the same compound?
Answer: 1.19 ± 0.035 µM

Question: And the “cell growth inhibitory effect on normal cells” value (normal cell line HEK293)?
Answer: excellent safety profiles; also recorded: low cytotoxicity

Question: Which results are given for COc1n[nH]c2ccc(-c3ccnc(NC(=O)NC4CCCC4)c3)cc12 [Compound 8g, 1-Cyclopentyl-3-(4-(3-methoxy-1H-indazol-5-yl)pyridin-2-yl)urea]?
Answer: GI50 (MCF7 cancer cell line [1]): 1.17 ± 0.059 µM; melting point: 222 to 225 °C; GI50 (HCT116 cancer cell line): 1.25 ± 0.037 µM

Question: Which GI50 (MCF7 cancer cell line [2]) does the source give for CNC(=O)c1cc(Oc2ccc(NC(=O)Nc3ccc(Cl)c(C(F)(F)F)c3)cc2)ccn1 [Sorafenib] here?
Answer: 11.2 µM

Question: What does the source list for O=C(NCCc1ccccc1F)Nc1cc(-c2ccc3cncnc3c2)ccn1 [Compound 4m, 1-(2-Fluorophenethyl)-3-(4-(quinazolin-7-yl)pyridin-2-yl)urea]?
Answer: GI50 (MCF7 cancer cell line [1]): > 10 µM; melting point: 272 to 275 °C; GI50 (HCT116 cancer cell line): > 10 µM

Question: What does the source list for COc1n[nH]c2ccc(-c3ccnc(NC(=O)NCc4ccccc4)c3)cc12 [Compound 8h, 1-Benzyl-3-(4-(3-methoxy-1H-indazol-5-yl)pyridin-2-yl)urea]?
Answer: GI50 (MCF7 cancer cell line [1]): 0.23 ± 0.015 µM; melting point: 230 to 233 °C; GI50 (HCT116 cancer cell line): 0.33 ± 0.042 µM; cell growth inhibitory effect on normal cells (normal cell line HEK293): excellent safety profiles; also recorded: low cytotoxicity

Question: For C=CCNC(=O)Nc1cc(-c2ccc3cncnc3c2)ccn1 [Compound 4i, 1-Allyl-3-(4-(quinazolin-7-yl)pyridin-2-yl)urea], which GI50 (MCF7 cancer cell line [1]) is on record?
Answer: 3.35 ± 0.101 µM

Question: What about the melting point of the same compound?
Answer: 190 to 193 °C

Question: What about the GI50 (HCT116 cancer cell line) of the same compound?
Answer: > 10 µM

Question: Which GI50 (MCF7 cancer cell line [1]) does the source give for COc1n[nH]c2ccc(-c3ccnc(NC(=O)NCCc4ccc(F)cc4)c3)cc12 [Compound 8k, 1-(4-Fluorophenethyl)-3-(4-(3-methoxy-1H-indazol-5-yl)pyridin-2-yl)urea] here?
Answer: 1.13 ± 0.003 µM

Question: What about the melting point of the same compound?
Answer: 209 to 212 °C

Question: And the GI50 (HCT116 cancer cell line)?
Answer: 1.38 ± 0.086 µM
